{"source": "paper PMC11236999", "about": "“Antagonism of propofol anesthesia by alkyl-fluorobenzene derivatives” (Scientific Reports, 2024)", "key": {"[1]": {"target": "T1, horse spleen apoferritin (HSAF) (Equus caballus, UniProt P02791)", "T1 construct": "model protein HSAF (horse spleen apoferritin); purchased Sigma-Aldrich; host or cells: horse spleen (tissue-derived)", "T1 sequence (P02791 2-175 limits assumed)": "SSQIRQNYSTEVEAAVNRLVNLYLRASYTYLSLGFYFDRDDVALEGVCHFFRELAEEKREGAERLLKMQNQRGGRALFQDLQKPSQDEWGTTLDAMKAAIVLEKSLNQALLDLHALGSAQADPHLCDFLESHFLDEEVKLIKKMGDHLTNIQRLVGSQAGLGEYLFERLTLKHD", "assay": "1-Aminoanthracene (1-AMA) competition fluorescence assay", "assay_type": "binding"}, "5 dpf larval zebrafish [2]": {"tested_on": "5 dpf larval zebrafish", "assay": "Zebrafish behavioral model of anesthesia, spontaneous movement (SM)", "assay_type": "in vivo", "experimental": "(§1) Figure 2 Screening of PFAL compounds for antagonism of anesthesia. PFAL compounds were screened in 5 dpf zebrafish for their ability to antagonize the anesthetic effects of propofol (panels a, b, c and d) as well as sevoflurane and isoflurane (panels e and f). Each dot represents the data collected from one fish. Spontaneous movement (SM) is the distance of spontaneous swimming in a 4 min period, and elicited movement (EM) is distance moved in 1 s after exposure to a tap stimulus. Both measures were scaled to same-day DMSO controls. […] Mean and 95% CI are shown for each data set. Statistical comparison with both DMSO (D) only (black asterisks) and anesthetic control (Ctrl, gray asterisks) groups are shown. Note that each DMSO comparison is to the DMSO only control (sample on the furthest left of each graph, and the anesthetic control comparisons are made within each anesthetic grouping as indicated by the bars along the x-axis of each graph. ns: P > 0.05, *: P ≤ 0.05, **: P ≤ 0.01, ***: P ≤ 0.001, ****: P ≤ 0.0001).\n(§2) Behavioral experiments (screening, EC50 curves) were performed as previously reported. Antagonism after induction was conducted in a similar manner with different timepoints and solution changes as indicated. The DanioVision Observation Chamber (Noldus) and Ethovision XT16 software were used to track and record (1280 × 960 resolution at 25 frames per second) larval zebrafish (5 dpf) movement in glass 96-well plates (Zissner North America 3,600,500). All experiments were performed at 28 °C with the DanioVision Temperature Control Unit. Zebrafish were allowed to equilibrate in E3 and 2% DMSO (with or without drug) for 10 min before being placed in the observation chamber for 22 min of recording. Two different endpoints were used to assess depth of anesthesia: spontaneous movement (SM) and elicited movement (EM). In these measures, fish movement was considered to be non-anesthetized. During each observation, fish were given time to acclimate to the chamber, and minutes 15–19 of the recording were used for analysis of SM. An EM response using the Daniovision tapping device (8 out of 8 intensity, movement response measured for 1 s after stimulus) was also measured at the end of the SM observation period. All recordings were scrutinized by a blind observer for technical errors in tracking to ensure accuracy of zebrafish detection and inaccurate tracking was excluded from further analysis. Toxicity was measured in separate experiments by exposing larvae to compounds for 30 min, transferring to fresh E3, and then observing mortality after exposure. […]"}, "[3]": {"tested_on": "propofol-sensitive GABAAR", "parameters": "method as in PMID 25799399", "settings": "cited from earlier work"}, "5 dpf zebrafish": {"tested_on": "5 dpf zebrafish", "assay": "Antagonism of anesthesia after induction (sequential addition)", "assay_type": "in vivo", "settings": "propofol 3 μM for 10 min, then propofol 3 μM plus 30 μM compound", "experimental": "In the above studies, the anesthetic and PFAL compounds were co-administered to the fish simultaneously.\nFigure 5 Further Characterization of Propofol Antagonism with Compounds 9 and 10. a and b 5 dpf zebrafish (n = 36) were first anesthetized with 3 μM propofol and then 30 μM of either compound 9 or 10 was added. Between minutes 5 and 10 there is a small gap in the data during which the propofol solution was removed and a solution containing propofol and PFAL compound was added. […] The mean and 95% CI is shown for each data point in all panels.\nBehavioral experiments (screening, EC50 curves) were performed as previously reported. Antagonism after induction was conducted in a similar manner with different timepoints and solution changes as indicated. The DanioVision Observation Chamber (Noldus) and Ethovision XT16 software were used to track and record (1280 × 960 resolution at 25 frames per second) larval zebrafish (5 dpf) movement in glass 96-well plates (Zissner North America 3,600,500). […] An EM response using the Daniovision tapping device (8 out of 8 intensity, movement response measured for 1 s after stimulus) was also measured at the end of the SM observation period. […] Toxicity was measured in separate experiments by exposing larvae to compounds for 30 min, transferring to fresh E3, and then observing mortality after exposure."}, "[4]": {"target": "T1, horse spleen apoferritin (HSAF)", "parameters": "method as in doi:10.1055/s-0040-1707287", "settings": "cited from earlier work"}, "5 dpf larval zebrafish [5]": {"tested_on": "5 dpf larval zebrafish", "assay": "Zebrafish behavioral model of anesthesia, elicited movement (EM, tap stimulus)", "assay_type": "in vivo", "experimental": "as §1, §2"}, "zebrafish": {"tested_on": "zebrafish", "parameters": "method as in PMID 33355437", "settings": "cited from earlier work"}, "tadpoles": {"tested_on": "tadpoles", "parameters": "method as in PMID 25799399", "settings": "cited from earlier work"}, "[6]": {"settings": "PFAL compound alone at 10 and 30 μM, versus DMSO control"}}, "note": "“Also recorded” adds a separate entry of the source.", "data": [{"smiles": "CC(C)c1cccc(C(C)C)c1F", "note": "[Compound 9, 1,3-diisopropyl-2-fluorobenzene]", "values": [{"measurement": "Inhibition of 1-AMA binding to HSAF", "setting": "[1]; 15 μM 1-AMA, 15 μM HSAF dimer, ligand 1 to 125 μM", "result": "most potent inhibitors of 1-AMA binding"}, {"measurement": "Shape of IC50 curve for 1-AMA displacement", "setting": "[1]; Fig. 6b", "result": "incomplete inhibition of 1-AMA binding"}, {"measurement": "Antagonism of propofol via SM", "setting": "5 dpf larval zebrafish [2]; 30 μM PFAL compound co-administered with propofol (0.3, 1, 5 μM), screen", "result": "showed antagonism of propofol; also recorded: statistically significant antagonism"}, {"measurement": "Antagonism of propofol via SM at 5 μM propofol", "setting": "5 dpf larval zebrafish [2]; 30 μM PFAL compound, propofol 5 μM", "result": "antagonized propofol"}, {"measurement": "IC50", "setting": "5 dpf larval zebrafish [2]; Danio rerio, 120 h, 5 dpf zebrafish exposed to 3 μM propofol, Fig. 5d, read-out: IC50 (antagonism of propofol)", "result": 37.5, "unit": "µM"}, {"measurement": "Spontaneous movement (SM), compound alone", "setting": "5 dpf larval zebrafish [2]; [6]", "result": "increased SM"}, {"measurement": "Increase of propofol EC50 versus propofol alone, spontaneous movement", "setting": "5 dpf larval zebrafish [2]; propofol plus 30 μM compound, Fig. 4a", "result": "~ tenfold"}, {"measurement": "Modulation of a propofol-sensitive GABAAR", "setting": "[3]", "result": "no significant modulation"}, {"measurement": "Reversal of established propofol immobility", "setting": "5 dpf zebrafish", "result": "rapid reversal of propofol immobility"}, {"measurement": "Binding to the anesthetic site of HSAF", "setting": "[4]", "result": "binds to this site"}, {"measurement": "Elicited movement (EM), compound alone", "setting": "5 dpf larval zebrafish [5]; [6]", "result": "increased EM"}, {"measurement": "Schild-type analysis with EM", "setting": "5 dpf larval zebrafish [5]; propofol EC50 curves (EM) at various concentrations of the compound, Fig. S6", "result": "no such relationship of antagonism was observed"}, {"measurement": "Antagonism of propofol in zebrafish", "setting": "zebrafish", "result": "antagonize propofol"}, {"measurement": "Antagonism of propofol in tadpoles", "setting": "tadpoles", "result": "antagonize propofol"}]}]}
